According to patent publication US6300327A, “Compositions and methods for potentiation of neurotrophin activity” (The University of Southern California, priority 1997, dated 2001):

Tested on: PC12 cells
Experiment: Neurite outgrowth of PC12 cells
Type: cell-based
Settings: 48 hours
Experimental: PC12 cells were grown as described earlier [Kaplan et al., 1990, 1991a, b]. To assess effects on neurite outgrowth, cells were incubated for 48 hours with K-252b (50 nM) and NT-3 or NGF (50 ng/ml). Neurites were scored if they were a length of one cell body or more.
Experiments on PC12 cells confirmed observations made on primary neuron cultures. Treatment with K-252b stimulated NT-3 induced neurite outgrowth and trk tyrosine phosphorylation in PC12 cells while inhibiting NGF induced effects. PC12 cells were incubated for 48 hours with K-252b (50 nM) and NT-3 or NGF (50 ng/ml). FIG. 4A illustrates the % cells with neurites after 48 hours incubation. Neurites were scored if they were a length of one cell body or more. PC12 cells were subsequently lysed and immunoprecipitated with anti-trk serum. trk proteins were subjected to SDS-PAGE and analyzed by immunoblotting with anti-phosphotyrosine antibodies (FIG. 4B). Lane 1, NT-3 +K-252b; lane 2, NT-3; lane 3, NGF +K-252b; lane 4, NGF. For FIG. 4C, PC12 cells were incubated for 1 hour in K-252b (50 nM or 10 μM) and with NT-3 or NGF for 5 minutes prior to lysis; other methods were the same as described for FIG. 4B. Lane 1, NT-3+10 μM K-252b; lane 2, NT-3±50 nM K-252b; lane 3, NT-3; lane 4, NGF+10 μM K-252b; lane 5, NGF+50 nM K-252b; lane 6, NGF; lane 7, untreated control.

CC12OC(CC1(O)C(=O)O)n1c3ccccc3c3c4c(c5c6ccccc6n2c5c31)CNC4=O (centres unmarked) [K-252b]
reduction of NGF-induced neurite outgrowth (50 nM K-252b + NGF 50 ng/ml): approximately three-fold | effect on NT-3 induced neurite outgrowth (50 nM K-252b + NT-3 50 ng/ml, vs NT-3 alone): significantly more neurite outgrowth activity
